Source: patent US20230013402A1, “REGENERATING FUNCTIONS AND PHENOTYPES OF CONNECTIVE TISSUE THROUGH NPAS2 SUPPRESSION” (The Regents of the University of California, priority 2019, published 2023)
Entries after “also recorded” stand apart in the source; their conditions may differ.

How the values were obtained:
[1] = tested on: Npas2-LacZ reporter gene (Npas2 expression); assay: High throughput screening of FDA Approved Drug Library for Npas2-LacZ reporter expression; type: cell-based, mouse; details: Table 1
From the text: Mouse MSC carrying Npas2-LacZ reporter gene, as described by Hassan N, et al., PLoS One. 2017; 12(8):e0183359, which is incorporated by reference herein in its entirety, was immortalized using SV40 in order to accommodate a large-scale HTS. […] This cell system was used to screen FDA Approved Drug Library (1120 compounds). The same library was also screened for cell viability by Calcein AM Hoechst 33342 staining Cell migration assays using the Oris™ Pro Cell Migration Assay plate, as described by Joy M E et al., PloS one. 2014; 9(2):e88350, which is incorporated by reference herein in its entirety, was used for a high-throughput migration assay using human skin fibroblasts
The combined Z score was used to identify hit compounds (Table 1).

[2] = tested on: osteocalcin (Ocn), osteopontin (Opn), Bmal1 expression; assay: Real time RT-PCR of osteogenic and clock genes in BMSC (MSC); type: cell-based, mouse
From the text: FIGS. 7A-7B show the effect of Reserpine on bone marrow stromal cells osteogenic differentiation. […] Bars: Tukey analysis with p<0.05. […] The expression values were normalized with day 0 RNA.
FIGS. 11A-11D(b) show results of in vitro biological assays of Npas2 suppressing compound Dwn1 (Reserpine).
Reserpine was selected and its effect on bone marrow stromal cells (BMSC) was characterized for osteogenic differentiation.
The small molecule compound that scored the best combined z score in Example 2, Dwn1 (Reserpine) was selected for in vitro biological assays. […] BMP-2 has been used as a gold standard for accelerated osteogenic differentiation of MSC (48, 49). […] The expression of core clock gene Bmal1 was not affected by Dwn1 (FIG. 11C). Dwn1 increased in vitro mineralization of Npas2+/− MSC, but not of Npas2−/− MSC (FIG. 11D), implying that the effect of Dwn1 (Reserpine) was facilitated primarily by Npas2 suppression.

[3] = tested on: ligature-induced periodontitis; assay: Modified mouse ligature-induced periodontitis model (ligature removed at Day 14, evaluation at D28); type: in vivo; details: topical to palatal gingiva once a week, listed as Dwn1
From the text: FIGS. 12A-12H show the effect of Dwn1 in the modified ligature-induced periodontitis in mice.
The selected highest hit compound Dwn1 (Reserpine) of Example 2 was applied to the well established ligature-induced periodontitis model with modification. After periodontitis was established at Day 14, the ligature was revoved from mouse molar mimicking non-invasive periodontits treatment: scaling and root planing (SRP) (FIGS. 12A-12D). Dwn1 was formulated in ABR LLC's propritery trans-epithelial deformable nano-scale vesicle (DNV) (57) and topically adminstered to the palatal gingival tissue once a week (FIG. 12E). […] The in vivo regenerative efficacy of Dwn1 (Reserpine) was strongly indicated.
From FDA Approved Drug Library (1120 compounds) and LOPAC Library (1280 compounds), a list of chemical compounds that modulated Npas2-LacZ expression was identified. […] Dwn1 was formulated for topical application to palatal gingiva. After 14 days of periodontitis induction, the ligature was removed and Dwn1 was topically applied to the palatal gingiva once a week (FIG. 16A).

Compound: COC(=O)[C@H]1[C@H]2C[C@@H]3c4[nH]c5cc(OC)ccc5c4CCN3C[C@H]2C[C@@H](OC(=O)c2cc(OC)c(OC)c(OC)c2)[C@@H]1OC [Reserpine]
- NPAS2 Z Score ([1]; HTS of FDA Drug Library): −2.57
- NPAS Z × ViabilityZ ([1]; combined Z score (product)): −10.77
- Expression of core clock gene Bmal1 ([2]; MSC, listed as Dwn1): did not affect; also recorded: not affected
- Expression of osteocalcin (Ocn) ([2]; day 21): significantly increased
- Expression of osteopontin (Opn) ([2]; day 21): mildly affected
- Expression of osteocalcin (Ocn) ([2]; day 21, listed as Dwn1): increased as early as D21; also recorded: accelerated expression
- Gingival epithelium / gingival defect [3]: normalized gingival epithelium; also recorded: less visible
- Alveolar bone regeneration (microCT bone height) ([3]; palatal side): increased bone height; also recorded: Alveolar bone regeneration was demonstrated; also recorded: alveolar bone loss was attenuated; also recorded: significant alveolar bone regeneration
- Gingival/periodontal collagen with Sharpey's fibers ([3]; picrosirius red): gingival/PDL connective tissue reconstruction; also recorded: appeared to be reconstructed; also recorded: normalized Sirius red stained gingival collagen arrangement; also recorded: collagen fibers were reorganized
